Measurements reported in ChEMBL document CHEMBL1135547, “Anticholinesterase activity of compounds related to geneserine tautomers. N-Oxides and 1,2-oxazines” (J Med Chem, 2002).

Tests used:
Cholinesterase = Cholinesterase (Homo sapiens, UniProt P06276)
Description: Ex vivo inhibition of human plasma Butyrylcholinesterase.

Acetylcholinesterase = Acetylcholinesterase (Homo sapiens, UniProt P22303)
Acetylcholinesterase, sequence (P22303 whole entry): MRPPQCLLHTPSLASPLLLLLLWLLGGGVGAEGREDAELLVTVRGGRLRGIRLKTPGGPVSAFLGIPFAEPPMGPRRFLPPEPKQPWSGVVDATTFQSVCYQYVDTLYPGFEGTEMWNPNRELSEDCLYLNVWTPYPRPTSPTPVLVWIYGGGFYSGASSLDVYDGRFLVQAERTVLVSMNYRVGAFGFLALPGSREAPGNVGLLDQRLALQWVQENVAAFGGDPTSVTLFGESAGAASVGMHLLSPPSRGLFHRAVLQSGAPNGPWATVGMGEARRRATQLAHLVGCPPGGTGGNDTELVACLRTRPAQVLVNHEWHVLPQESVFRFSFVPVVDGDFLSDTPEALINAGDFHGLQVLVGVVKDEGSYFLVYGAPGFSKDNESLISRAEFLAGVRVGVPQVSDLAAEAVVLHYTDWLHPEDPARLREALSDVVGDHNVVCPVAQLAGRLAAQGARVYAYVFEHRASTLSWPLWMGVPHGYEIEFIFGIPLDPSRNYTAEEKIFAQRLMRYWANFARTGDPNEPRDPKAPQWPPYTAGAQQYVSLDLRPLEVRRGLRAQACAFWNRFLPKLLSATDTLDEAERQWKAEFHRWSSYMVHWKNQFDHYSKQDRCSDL
Description: Ex vivo inhibition of human erythrocyte Acetylcholinesterase.

Cholinesterase, sequence (P06276 whole entry): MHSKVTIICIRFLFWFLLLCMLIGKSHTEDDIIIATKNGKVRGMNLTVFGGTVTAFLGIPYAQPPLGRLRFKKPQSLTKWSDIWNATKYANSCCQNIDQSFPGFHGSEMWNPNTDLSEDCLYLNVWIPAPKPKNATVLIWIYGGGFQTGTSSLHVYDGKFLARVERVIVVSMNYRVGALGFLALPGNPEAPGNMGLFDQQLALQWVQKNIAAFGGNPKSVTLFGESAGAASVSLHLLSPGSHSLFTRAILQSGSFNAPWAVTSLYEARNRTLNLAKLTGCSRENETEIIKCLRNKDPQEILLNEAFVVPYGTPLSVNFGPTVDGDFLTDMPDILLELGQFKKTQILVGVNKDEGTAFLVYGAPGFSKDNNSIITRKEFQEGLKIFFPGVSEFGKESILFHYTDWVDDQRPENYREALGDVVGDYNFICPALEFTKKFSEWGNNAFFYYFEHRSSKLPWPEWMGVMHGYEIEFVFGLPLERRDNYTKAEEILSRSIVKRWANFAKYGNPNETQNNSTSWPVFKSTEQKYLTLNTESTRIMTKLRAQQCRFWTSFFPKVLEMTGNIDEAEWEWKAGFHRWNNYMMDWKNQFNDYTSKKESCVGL

Row | SMILES | IC50 (Cholinesterase) [nM] | IC50 (Acetylcholinesterase) [nM]
1 | CN1CC[C@@]2(C)c3cc(OC(=O)Nc4ccccc4)ccc3N(C)[C@H]2O1 | 815 | 130
2 | Cc1ccccc1NC(=O)Oc1ccc2c(c1)[C@]1(C)CCN(C)O[C@@H]1N2C | 1570 | 175
3 | CC(C)c1ccc(NC(=O)Oc2ccc3c(c2)[C@]2(C)CCN(C)O[C@@H]2N3C)cc1 | 25 | > 10000
4 | CCc1ccccc1NC(=O)Oc1ccc2c(c1)[C@]1(C)CC[N@@+](C)([O-])[C@@H]1N2C | 1700 | 125
5 | CNC(=O)Oc1ccc2c(c1)[C@]1(C)CC[N@@+](C)([O-])[C@@H]1N2C | 660 | 100
6 | CN1c2ccc(OC(=O)Nc3ccccc3)cc2[C@]2(C)CC[N@@+](C)([O-])[C@H]12 | > 10000 | 200
7 | Cc1ccccc1NC(=O)Oc1ccc2c(c1)[C@]1(C)CC[N@@+](C)([O-])[C@@H]1N2C | > 10000 | 180
8 | CC(C)c1ccc(NC(=O)Oc2ccc3c(c2)[C@]2(C)CC[N@@+](C)([O-])[C@@H]2N3C)cc1 | 5200 | > 10000
9 | CCCCCCCNC(=O)Oc1ccc2c(c1)[C@]1(C)CCN(C)[C@@H]1N2C [EPTASTIGMINE] | 5 | 22
10 | CNC(=O)Oc1ccc2c(c1)[C@]1(C)CCN(C)O[C@@H]1N2C [ESERIDINE] | 12 | –
11 | CCc1ccccc1NC(=O)Oc1ccc2c(c1)[C@]1(C)CCN(C)O[C@@H]1N2C [GANSTIGMINE] | 310 | 65
12 | C/C=C1\[C@H]2C=C(C)C[C@]1(N)c1ccc(=O)[nH]c1C2 [HUPERZINE A] | > 10000 | –
